Earlier results in patent publication US10894017B1 (XSPRAY PHARMA AB, priority 2019, dated 2021).

What was measured:
[1] = clinical bio-equivalence studies
[2] = within and between patients
[3] = high permeability and low solubility

## Cc1nc(Nc2ncc(C(=O)Nc3c(C)cccc3Cl)s2)cc(N2CCN(CCO)CC2)n1 [anhydrate form N-6]
[1]
  AUC compared to Sprycel: higher AUC

## Cc1nc(Nc2ncc(C(=O)Nc3c(C)cccc3Cl)s2)cc(N2CCN(CCO)CC2)n1 [dasatinib]
[2]
  coefficient of variation of AUC: up to 100%
  coefficient of variation of Cmax: up to 100%

## CC(O)CO.Cc1nc(Nc2ncc(C(=O)Nc3c(C)cccc3Cl)s2)cc(N2CCN(CCO)CC2)n1 [1,2-propanediol solvate, dasatinib 1,2-propanediol solvate]
[1]
  AUC compared to Sprycel: higher AUC

## Cc1nc(Nc2ncc(C(=O)Nc3c(C)cccc3Cl)s2)cc(N2CCN(CCO)CC2)n1 [Dasatinib monohydrate]
[3]
  BCS classification: BCS II
